The experiment concerns Palmitoyl CoA oxidation in rat heart mitochondria. Nature of the experiment: Palmitoyl CoA oxidation in isolated rat heart mitochondria (Mitochondrial Assays). In kind it is biochemical. Particulars: 1-C14 palmitoyl CoA, 15 min at 30° C., read-out: Palm CoA inhibition IC50. Here is the method:
Rat heart mitochondria are isolated by the method of Nedergard and Cannon (Methods in Enzymol. 55, 3, 1979).
Palmitoyl CoA oxidation—The Palmityl CoA oxidation is carried out in a total volume of 100 micro liters containing the following agents: 110 mM KCl, 33 mM Tris buffer at pH 8, 2 mM KPi, 2 mM MgCl2, 0.1 mM EDTA, 14.7 microM defatted BSA, 0.5 mM malic acid, 13 mM carnitine, 1 mM ADP, 52 micrograms of mitochondrial protein, and 16 microM 1-C14 palmitoyl CoA (Sp. Activity 60 mCi/mmole; 20 microCi/ml, using 5 microliters per assay). The compounds of this invention are added in a DMSO solution at the following concentrations: 100 micro molar, 30 micro molar, and 3 micro molar. In each assay, a DMSO control is used. After 15 min at 30° C., the enzymatic reaction is centrifuged (20,000 g for 1 min), and 70 microliters of the supernatant is added to an activated reverse phase silicic acid column (approximately 0.5 ml of silicic acid). The column is eluted with 2 ml of water, and 0.5 ml of the eluent is used for scintillation counting to determine the amount of C^14 trapped as C^14 bicarbonate ion.

One may read the IC50 as the concentration that gives 50% inhibition.

In the case of `Cc1nc2cc(OCC(CN3CCN(CC(=O)Nc4cccc(-c5ccccc5)c4)CC3)NS(C)(=O)=O)ccc2s1` (stereo not shown) [2-(4-{3-(2-methylbenzothiazol-5-yloxy)-2-[(methylsulfonyl)amino]propyl}piperazinyl)-N-(3-phenylphenyl)acetamide], the IC50 is 2.9 µM.

Consider “N-fluoren-2-yl(4-{3-(2-methylbenzothiazol-5-yloxy)-2-[(methylsulfonyl)amino]propyl}-piperazinyl)carboxamide”, for which the IC50 was determined as 3 µM.

For the compound `CC(=O)NC(COc1ccc2sc(C)nc2c1)CN1CCN(C(=O)Nc2ccc3c(c2)Cc2ccccc2-3)CC1` (stereo not shown) [N-{2-[4-(N-fluoren-2-ylcarbamoyl)piperazinyl]-1-[(2-methylbenzothiazol-5-yloxy)methyl]ethyl}acetamide], the IC50 was found to be 8.2 µM. Turning to `CC(=O)NC(COc1ccc2sc(C)nc2c1)CN1CCN(CC(=O)Nc2cccc(-c3ccccc3)c2)CC1` (stereo not shown) [2-{4-[2-(acetylamino)-3-(2-methylbenzothiazol-5-yloxy)propyl]piperazinyl}-N-(3-phenylphenyl)acetamide], the IC50 was determined as 12.7 µM.

Values taken from patent US7601721B2, “Substituted heterocyclic compounds” (Gilead Palo Alto, Inc., priority 2004, dated 2009).
